The values that follow come from patent US20220089592A1, “IMIDAZO[1,2-A]PYRIDINYL DERIVATIVES AS IRAK4 INHIBITORS” (priority 2019, published 2022).

Broadly, the IC50 is the concentration that gives 50% inhibition. A higher IC50 goes with lower potency.

Assay [1] deals with T1, IRAK4 (Homo sapiens, UniProt Q9NWZ3).
T1 sequence (Q9NWZ3 1-460): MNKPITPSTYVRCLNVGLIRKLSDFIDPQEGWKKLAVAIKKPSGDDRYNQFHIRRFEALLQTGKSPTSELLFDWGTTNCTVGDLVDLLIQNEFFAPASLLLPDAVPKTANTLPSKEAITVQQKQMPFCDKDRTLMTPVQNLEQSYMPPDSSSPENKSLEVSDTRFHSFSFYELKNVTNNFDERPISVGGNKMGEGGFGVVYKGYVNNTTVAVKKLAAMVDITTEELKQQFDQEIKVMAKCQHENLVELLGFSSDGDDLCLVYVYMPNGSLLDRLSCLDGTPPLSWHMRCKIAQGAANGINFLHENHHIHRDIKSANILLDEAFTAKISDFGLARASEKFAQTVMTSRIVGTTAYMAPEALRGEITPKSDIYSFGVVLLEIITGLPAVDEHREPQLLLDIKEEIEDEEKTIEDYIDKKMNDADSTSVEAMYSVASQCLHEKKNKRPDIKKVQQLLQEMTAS
Put plainly: 2-hour 10 μM ATP Biochemical Assay (MesoScale Detection format; IRAK4 phosphorylation of biotin labeled IRAK1 activation loop peptide). Particulars: IRAK4 MSD BIOCHEMICAL (10 μM ATP) IC50 (μM), 1 nM IRAK4, 2 hours. In a few lines:
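Kinase reaction run 2 h at 10 μM ATP with biotinylated IRAK1 activation-loop peptide, quenched with EDTA. Phospho-peptide captured on streptavidin MSD plates and detected with anti-phosphothreonine rabbit antibody plus Sulfo-Tag anti-rabbit electrochemiluminescence.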

Assay [2] addresses T1, IRAK4. Put plainly: 2-hour 1 mM ATP IRAK4 Biochemical assay (as above, but with 100 pM IRAK4 and 1 mM ATP). To be noted: IRAK4 MSD BIOCHEMICAL (1 mM ATP) IC50 (μM), 100 pM IRAK4, 2 hours. In a few lines: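 Run with 100 pM IRAK4 and 1 mM ATP for 2 hours, quenched with EDTA pH 8. Phosphorylated biotinylated peptide captured on streptavidin MSD plates and detected with anti-phosphothreonine antibody plus Sulfo-Tag secondary by electrochemiluminescence.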

Counter-ions that a name gives are not always drawn.

For the compound `CCOc1cc2nc(C3CCOCC3)cn2cc1NC(=O)c1cccc(N(C)C)n1` [Example 237, 6-(dimethylamino)-N-(7-ethoxy-2-(tetrahydro-2H-pyran-4-yl)imidazo[1,2-a]pyridin-6-yl)picolinamide], the IC50 at IRAK4 [1] was found to be 0.001 µM; at IRAK4 [2], 0.005 µM.

On to `CCOc1cc2nc(C3CC3)cn2cc1NC(=O)c1cccc(C2CCOC2)n1` (centres unmarked) [Example 238, N-(2-cyclopropyl-7-ethoxyimidazo[1,2-a]pyridin-6-yl)-6-(tetrahydrofuran-3-yl)picolinamide], for which the IC50 against IRAK4 [1] stood at 0.004 µM; at IRAK4 [2], 0.015 µM.

On to `CCOc1cc2nc(C3CCOCC3)cn2cc1NC(=O)c1cccc(C(F)CF)n1` (centres unmarked) [Example 239, 6-(1,2-difluoroethyl)-N-(7-ethoxy-2-(tetrahydro-2H-pyran-4-yl)imidazo[1,2-a]pyridin-6-yl)picolinamide], for which the results for the IC50 on IRAK4 [1] and at IRAK4 [2] were 0.002 µM and 0.003 µM, respectively.

On to `CCOc1cc2nc(C3CCOCC3)cn2cc1NC(=O)c1cnc2c(c1)CCO2` [Example 240, N-(7-ethoxy-2-(tetrahydro-2H-pyran-4-yl)imidazo[1,2-a]pyridin-6-yl)-2,3-dihydrofuro[2,3-b]pyridine-5-carboxamide], for which the IC50 turned out to be 0.006 µM against IRAK4 [1] and 0.019 µM on IRAK4 [2].

`CCOc1cc2nc(C(C)(C)C#N)cn2cc1NC(=O)c1csc(C)n1` [Example 241, N-(2-(2-cyanopropan-2-yl)-7-ethoxyimidazo[1,2-a]pyridin-6-yl)-2-methylthiazole-4-carboxamide]: the half-inhibitory concentration (IC50) came out at 0.01 µM against IRAK4 [1] and 0.041 µM on IRAK4 [2].

On to `CCOc1nc2nc(CCCOC)cn2cc1NC(=O)c1cccc(C(F)F)n1` [Example 242, 6-(difluoromethyl)-N-(7-ethoxy-2-(3-methoxypropyl)imidazo[1,2-a]pyrimidin-6-yl)picolinamide], for which the concentration for half-maximal inhibition (IC50) worked out at 0.001 µM against IRAK4 [1] and 0.003 µM at IRAK4 [2].

For `CCOc1nc2nc(C3CC3)cn2cc1NC(=O)c1cccc(C(F)F)n1` [Example 243, N-(2-cyclopropyl-7-ethoxyimidazo[1,2-a]pyrimidin-6-yl)-6-(difluoromethyl)picolinamide], the IC50 against IRAK4 [1] is 0.003 µM; against IRAK4 [2] it was 0.014 µM.

Take `CCOc1cc2nc(C3CCCC(=O)N3C)cn2cc1NC(=O)c1cccc(C(F)F)n1` (centres unmarked) [Example 246, 6-(difluoromethyl)-N-(7-ethoxy-2-(1-methyl-6-oxopiperidin-2-yl)imidazo[1,2-a]pyridin-6-yl)picolinamide]: the IC50 against IRAK4 [1] and against IRAK4 [2] was 0.001 µM in each case.

With `CCOc1cc2nc(C3CCCC(OC)C3)cn2cc1NC(=O)c1cccc(C(F)F)n1` (centres unmarked) [Example 256, 6-(difluoromethyl)-N-(7-ethoxy-2-(3-methoxycyclohexyl)imidazo[1,2-a]pyridin-6-yl)picolinamide], the IC50 against IRAK4 [1] and on IRAK4 [2] was 0.001 µM throughout.

For the compound `COc1cc(NC(=O)c2cccc(C(F)F)n2)cn2cc(C3CCOCC3)nc12` [Example 304, 6-(difluoromethyl)-N-(8-methoxy-2-(tetrahydro-2H-pyran-4-yl)imidazo[1,2-a]pyridin-6-yl)picolinamide], the IC50 against IRAK4 [1] is 0.006 µM; at IRAK4 [2] it was 0.013 µM.

Regarding `O=C(Nc1cn2cc(C3CCOCC3)nc2cn1)c1cccc(C(F)F)n1` [Example 330, 6-(difluoromethyl)-N-(2-(tetrahydro-2H-pyran-4-yl)imidazo[1,2-a]pyrazin-6-yl)picolinamide], the half-maximal inhibitory concentration (IC50) on IRAK4 [1] is 0.023 µM; at IRAK4 [2] it was 0.038 µM.

For `O=C(Nc1ccc2nc(CC3CCOC3)cn2c1)c1cccc(C(F)F)n1` (centres unmarked) [Example 355, 6-(difluoromethyl)-N-(2-((tetrahydrofuran-3-yl)methyl)imidazo[1,2-a]pyridin-6-yl)picolinamide], the IC50 against IRAK4 [1] stood at 0.008 µM; against IRAK4 [2], 0.042 µM.

For `O=C(Nc1ccc2nc(C3CCOCC3)cn2c1)c1cccc(C(F)F)n1` [Example 356, 6-(difluoromethyl)-N-(2-(tetrahydro-2H-pyran-4-yl)imidazo[1,2-a]pyridin-6-yl)picolinamide], the IC50 on IRAK4 [1] was 0.015 µM; against IRAK4 [2], 0.033 µM.

As to `CCOc1cc2nc(C(C)(C)C#N)cn2cc1NC(=O)c1coc(C(C)C)n1` [Example 358, N-(2-(2-cyanopropan-2-yl)-7-ethoxyimidazo[1,2-a]pyridin-6-yl)-2-isopropyloxazole-4-carboxamide], the results for the IC50 at IRAK4 [1] and against IRAK4 [2] were 0.006 µM and 0.014 µM, respectively.

Regarding `CCOc1cc2nc(C(C)(C)C#N)cn2cc1NC(=O)c1coc(C(F)F)n1` [Example 359, N-(2-(2-cyanopropan-2-yl)-7-ethoxyimidazo[1,2-a]pyridin-6-yl)-2-(difluoromethyl)oxazole-4-carboxamide], the IC50 was determined as 0.01 µM at IRAK4 [1] and 0.023 µM against IRAK4 [2].

For the compound `CCOc1cc2nc(C(C)(C)C#N)cn2cc1NC(=O)c1coc(C2CC2)n1` [Example 360, N-(2-(2-cyanopropan-2-yl)-7-ethoxyimidazo[1,2-a]pyridin-6-yl)-2-cyclopropyloxazole-4-carboxamide], the IC50 worked out at 0.006 µM against IRAK4 [1] and 0.005 µM on IRAK4 [2].

With `CCOc1cc2nc(C3CCOCC3)cn2cc1NC(=O)c1cccc(OC2CC2)n1` [Example 361, 6-cyclopropoxy-N-(7-ethoxy-2-(tetrahydro-2H-pyran-4-yl)imidazo[1,2-a]pyridin-6-yl)picolinamide], the IC50 against IRAK4 [1] worked out at 0.002 µM; against IRAK4 [2] it was 0.01 µM.

With `CCOc1cc2nc(C3CCOCC3)cn2cc1NC(=O)c1cccc(OC(F)F)n1` [Example 362, 6-(difluoromethoxy)-N-(7-ethoxy-2-(tetrahydro-2H-pyran-4-yl)imidazo[1,2-a]pyridin-6-yl)picolinamide], the IC50 at IRAK4 [1] turned out to be 0.006 µM; on IRAK4 [2], 0.017 µM.

Consider `CCOc1cc2nc(C3CCOCC3)cn2cc1NC(=O)c1cccc(COC)n1` [Example 364, N-(7-ethoxy-2-(tetrahydro-2H-pyran-4-yl)imidazo[1,2-a]pyridin-6-yl)-6-(methoxymethyl)picolinamide], for which the results for the IC50 at IRAK4 [1] and at IRAK4 [2] were 0.004 µM and 0.013 µM, respectively.

Regarding `CCOc1cc2nc(C3CCOCC3)cn2cc1NC(=O)c1cccc(C#N)n1` [Example 365, 6-cyano-N-(7-ethoxy-2-(tetrahydro-2H-pyran-4-yl)imidazo[1,2-a]pyridin-6-yl)picolinamide], the IC50 was 0.002 µM against IRAK4 [1] and 0.006 µM against IRAK4 [2].

Consider `CCOc1cc2nc(C3CCOCC3)cn2cc1NC(=O)c1cccc(C2CC2)n1` [Example 366, 6-cyclopropyl-N-(7-ethoxy-2-(tetrahydro-2H-pyran-4-yl)imidazo[1,2-a]pyridin-6-yl)picolinamide], for which the values for the IC50 against IRAK4 [1] and on IRAK4 [2] were 0.003 µM and 0.004 µM, respectively.

In the case of `CCOc1nc2nc(C3CCOCC3)cn2cc1NC(=O)c1cccc(OC)n1` [Example 368, N-(7-ethoxy-2-(tetrahydro-2H-pyran-4-yl)imidazo[1,2-a]pyrimidin-6-yl)-6-methoxypicolinamide], the IC50 against IRAK4 [1] stood at 0.008 µM; against IRAK4 [2] it was 0.016 µM.

Regarding `CCOc1cc2nc(CC3CCOC3)cn2cc1NC(=O)c1ccc2c(n1)CCC2` (centres unmarked) [Example 369, N-(7-ethoxy-2-((tetrahydrofuran-3-yl)methyl)imidazo[1,2-a]pyridin-6-yl)-6,7-dihydro-5H-cyclopenta[b]pyridine-2-carboxamide], the figures for the IC50 against IRAK4 [1] and against IRAK4 [2] were 0.002 µM and 0.026 µM, respectively.

Take `CCOc1nc2nc(C3CCOCC3)cn2cc1NC(=O)c1cccc(C(F)F)n1` [Example 372, 6-(difluoromethyl)-N-(7-ethoxy-2-(tetrahydro-2H-pyran-4-yl)imidazo[1,2-a]pyrimidin-6-yl)picolinamide]: the IC50 was 0.001 µM on IRAK4 [1] and 0.002 µM against IRAK4 [2].

As for `CCOc1cc2nc(CC3CCOC3)cn2cc1NC(=O)c1cccn(C)c1=O` (centres unmarked) [Example 373, N-(7-ethoxy-2-((tetrahydrofuran-3-yl)methyl)imidazo[1,2-a]pyridin-6-yl)-1-methyl-2-oxo-1,2-dihydropyridine-3-carboxamide], the IC50 turned out to be 0.008 µM against IRAK4 [1] and 0.028 µM against IRAK4 [2].

Consider `CCOc1cc(NC(=O)c2cccc(C(F)F)n2)cn2cc(C3CCOCC3)nc12` [Example 413, 6-(difluoromethyl)-N-(8-ethoxy-2-(tetrahydro-2H-pyran-4-yl)imidazo[1,2-a]pyridin-6-yl)picolinamide], for which the concentration for half-maximal inhibition (IC50) was found to be 0.005 µM on IRAK4 [1] and 0.015 µM at IRAK4 [2].

Consider `COc1nc(NC(=O)c2cccc(C(F)(F)F)n2)cn2cc(C3CCOCC3)nc12` [Example 451, N-(8-methoxy-2-(tetrahydro-2H-pyran-4-yl)imidazo[1,2-a]pyrazin-6-yl)-6-(trifluoromethyl)picolinamide 2,2,2-trifluoroacetate], for which the half-maximal inhibitory concentration (IC50) at IRAK4 [1] amounted to 0.029 µM; on IRAK4 [2] it was 0.066 µM.

Regarding `COc1nc(NC(=O)c2ccn(C)n2)cn2cc(C3CCOCC3)nc12` [Example 461, N-(8-methoxy-2-(tetrahydro-2H-pyran-4-yl)imidazo[1,2-a]pyrazin-6-yl)-1-methyl-1H-pyrazole-3-carboxamide Hydrochloride], the figures for the IC50 at IRAK4 [1] and on IRAK4 [2] were 0.033 µM and 0.148 µM, respectively.
